This passage reports Km results from article PMC5938755 (Biochemistry, 2018).

By Km is commonly meant the concentration of substrate that gives half-maximal velocity.

The experiment has as its target phosphotriesterase from Sphingobium sp. TCM1 (Sb-PTE) (Sphingobium sp. TCM1, UniProt A0A077JBW9). Kind of experiment: steady-state kinetics, release of p-nitrophenol. The class given is biochemical. Conditions: 50 mM HEPES/K+, pH 8.5, 30 °C; only aryl ester hydrolysis followed.

The structures appear in SMILES notation.

In the case of `COP(=O)(OC)Oc1ccc([N+](=O)[O-])cc1` [compound 3, dimethyl p-nitrophenyl phosphate], the Michaelis constant (Km) is 760 ± 50 µM.
As to `CCOP(=O)(OCC)Oc1ccc([N+](=O)[O-])cc1` [compound 11, paraoxon], the Km was found to be 83 ± 9 µM.
